This note sets out measurements from patent publication US5880147A, “Amide derivatives having ACAT inhibitory activity, their preparation and their therapeutic and prohylactic use” (Sankyo Company, Limited, priority 1995, dated 1999).

As a reminder, the IC50 is the concentration at which inhibition is half-maximal.

For the assay, the target named is T1, ACAT (acyl-CoA: cholesterol acyl transferase) (Mus musculus, UniProt Q61263).
T1 construct: endogenous in cells; host or cells: primary adherent peritoneal macrophages from unstimulated female DDY mice
T1 sequence (Q61263 1-540): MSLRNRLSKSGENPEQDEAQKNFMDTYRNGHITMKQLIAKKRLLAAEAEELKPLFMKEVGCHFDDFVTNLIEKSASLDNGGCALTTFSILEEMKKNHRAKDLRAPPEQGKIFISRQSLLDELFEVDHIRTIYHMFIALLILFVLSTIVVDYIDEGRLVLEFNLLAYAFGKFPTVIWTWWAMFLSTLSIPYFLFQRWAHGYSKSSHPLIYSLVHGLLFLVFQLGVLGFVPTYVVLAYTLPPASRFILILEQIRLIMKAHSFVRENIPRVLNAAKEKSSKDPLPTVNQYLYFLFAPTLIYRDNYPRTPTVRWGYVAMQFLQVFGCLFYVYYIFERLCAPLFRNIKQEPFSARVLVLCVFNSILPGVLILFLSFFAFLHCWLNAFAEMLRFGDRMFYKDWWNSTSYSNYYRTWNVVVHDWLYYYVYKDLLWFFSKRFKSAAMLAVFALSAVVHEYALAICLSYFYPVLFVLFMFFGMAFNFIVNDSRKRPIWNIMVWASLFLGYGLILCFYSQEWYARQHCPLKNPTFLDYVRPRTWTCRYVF
Nature of the assay: Inhibition of ACAT in M.phi. (mouse peritoneal macrophages). It counts as cell-based, mouse (female DDY mice). Particulars: β-VLDL 50 μg cholesterol/ml, [14C]oleate-albumin, 37° C., 3 hours. On the procedure:
Blood was obtained [using the anticoagulant ethylene diamine tetraacetic acid (5 mM)] from Japanese White rabbits which had been fed a 2% w/w cholesterol diet for 2 weeks and then fasted overnight prior to removing the blood. β-VLDL (d<1.006 g/ml) was isolated by ultracentrifugation from the plasma according to the method of Hatch and Lees [Hatch, F T. and Lees, R S.,Adv. Lipid Res., 6 1-68 (1968)] and dialyzed at 4° C. against 10 mM of a sodium phosphate buffer (pH 7.4) containing 150 mM sodium chloride.
Peritoneal cells were harvested from unstimulated female DDY mice (body weight 20-30 g) in phosphate buffer saline (PBS) as described by Edelson and Cohn [Edelson, P J. and Cohn, Z A.,1976, "In Vitro Methods in Cell-Mediated and Tumor Immunity", editors Bloon, B R and David, J R., (Academic Press, New York), 330-340.]. The fluid from the mice was pooled and the cells were collected by centrifugation at 400×g for 10 minutes at 4° C., and washed once with PBS. The cells were resuspended in Dulbecco's modified Eagle's medium (DMEM) containing 10% (vol/vol) fetal calf serum (FCS), penicillin (100 units/ml), and streptomycin (100 μg/ml) at a final concentration of 3×10^6 cells per ml. Aliquots (1 ml) of this cell suspension were dispersed onto plastic petri dishes (35×10 mm) and then incubated in a CO2 incubator (5% CO2 /95% air) at 37° C. for 2 hours. Each dish was washed twice with PBS without serum to remove nonadherent cells.
Inhibition of ACAT in M.phi. was determined according to the method described by Brown et al. Brown, M S., Goldstein J L., Krieger, M., Ho, Y K. and Anderson, R G W. (1979) J. Cell Biol., 82, 597-613.]. Cholesterol reacylation was initiated by adding β-VLDL (final concentration 50 μg cholesterol/ml), [^14 C]oleate-albumin complex (final concentrations: 0.2 mM oleate and 0.6 mg/ml albumin) and a test compound dissolved in ethanol into the M.phi. monolayer, and the preparation was incubated at 37° C. for 3 hours in a CO2 incubator. Cells were washed three times with PBS and cellular lipid was extracted with 1 ml hexane/isopropanol (3:2 vol/vol). A lipid extract was evaporated to dryness in a stream of nitrogen. Cholesterol [^14 C]oleated was seperated by thin layer chromatography through silica gel using an 85:15:1 by volume mixture of hexane, diethyl ether and acetic acid as developing solvents. The ACAT activity in M.phi. was determined by measuring the radioactivity and an inhibition rate (%) was calculated by comparing a control activity with those of the test compound at given concentrations. The results are shown in the following Table, in which the compounds of the present invention are identified by the number of the Example given hereafter in which they are prepared.

Regarding `CCCCCCC(CC(=O)Nc1cc(C(N)=O)ccc1C(C)(C)C)c1ccc(OC)cc1OC` (stereo not drawn) [Example 44, N-(2-t-Butyl-5-carbamoylphenyl)-3-(2,4-dimethoxyphenyl)nonanamide], the concentration for half-maximal inhibition (IC50) was 23.5 nM. Turning to `CCCCCC(CC(=O)Nc1cc(CNC(=O)N(C)C)ccc1C(C)(C)C)c1ccc(OC)cc1OC` (stereo not drawn) [Example 23, N-[2-t-Butyl-5-(N',N'-dimethylaminocarbonylaminomethyl)phenyl]-3-(2,4-dimethoxyphenyl)octanamide], half-maximal inhibition (IC50) required 10.6 nM.

`CCCCCC(CC(=O)Nc1cc(C(=O)NC)ccc1C(C)(C)C)c1cc(C(=O)NC)c(OC)cc1OC` (stereo not drawn) [Example 35, N-(2-t-Butyl-5-N'-methylcarbamoylphenyl)-3-(2,4-dimethoxy-5-N"-methylcarbamoylphenyl)octanamide] had an IC50 of 62.8 nM.

On to `CCCCCC(CC(=O)Nc1cc(C(=O)NC(=O)C(C)C)ccc1C(C)(C)C)c1ccc(OC)cc1OC` (stereo not drawn) [Example 131, N-[2-t-Butyl-5-(2-methylpropanoyl)aminocarbonylphenyl)-3-(2,4-dimethoxyphenyl]octanamide], for which the IC50 is 17.3 nM. To `CCCCCC(CC(=O)Nc1cc(CNS(=O)(=O)CC)ccc1C(C)(C)C)c1ccc(OC)cc1OC` (stereo not drawn) [Example 11, N-[2-t-Butyl-5-(ethylsulfonylaminomethyl)phenyl]-3-(2,4-dimethoxyphenyl)octanamide] belongs 9.76 nM. The same measure for `CCCCCC(CC(=O)Nc1cc(CNC(=O)NC(C)C)ccc1C(C)(C)C)c1cccc2c1OCCO2` (stereo not drawn) [Example 173, N-[2-t-Butyl-5-(N'-isopropylureidomethyl)phenyl]-3-(2,3-ethylenedioxyphenyl)octanamide]: 17.6 nM; for `CCCCCC(CC(=O)Nc1cc(C(=O)NC(=O)c2cccnc2)ccc1C(C)(C)C)c1ccc(OC)cc1OC` (stereo not drawn) [Example 136, N-{2-t-Butyl-5-[(3-pyridyl)carbonlaminocarbonyl]phenyl}-3-(2,4-dimethoxyphenyl)octanamide]: 9.65 nM; for `CCCCCC(CC(=O)Nc1cc(CNC(=O)c2cccnc2)ccc1C(C)(C)C)c1ccc(OC)cc1OC` (stereo not drawn) [Example 158, N-[2-t-Butyl-5-(N'-3-pyridylcarbonylaminomethyl)phenyl]-3-(2,4-dimethoxyphenyl)octanamide]: 18 nM. With `CCCCCC(CC(=O)Nc1cc(C(=O)NC)ccc1C(C)(C)C)c1ccc(OCC(=O)NCCCC)cc1OC` (stereo not drawn) [Example 64, N-(2-t-Butyl-5-N'-methylcarbamoylphenyl)-3-(4-N"-butylcarbamoylmethloxy-2-methoxyphenyl)octanamide], it took 29.9 nM to reach half-maximal inhibition (IC50).

`CCCCCC(CC(=O)Nc1cc(COC(N)=O)ccc1C(C)(C)C)c1ccc(OC)cc1OC` (stereo not drawn) [Example 5, N-[2-t-Bu=l-5-(carbamoyloxymethyl)phenyl]-3-(2,4-dimethoxyphenyl)octanamide] showed an IC50 of 68.1 nM.

Regarding `CCCCCC(CC(=O)Nc1cc(C(N)=O)ccc1C(C)(C)C)c1ccc(OC)cc1OC` (stereo not drawn) [Example 2, N-(2-t-Butyl-5-carbamoylphenyl)-3-(2,4-dimethoxyphenyl)octanamide], the IC50 was 41.8 nM. To `CCCCCC(CC(=O)Nc1cc(CC#N)ccc1C(C)(C)C)c1ccc(OC)cc1OC` (stereo not drawn) [Example 19, N-(2-t-Butyl-5-cyanomethylphenyl)-3-(2,4-dimethoxyphenyl)octanamide] belongs 28.8 nM.

The compound `CCCCCC(CC(=O)Nc1cc(C(=O)NC)ccc1C(C)(C)C)c1ccc(OC)cc1OC` (stereo not drawn) [Example 1, N-(2-t-Butyl-5-N'-methylcarbamoylphenyl)-3-(2,4-dimethoxphenyl)octanamide] gave an IC50 of 59.7 nM. To `CCCCCC(CC(=O)Nc1cc(CC(=O)NC)ccc1C(C)(C)C)c1ccc(OC)cc1OC` (stereo not drawn) [Example 3] belongs 31.1 nM; to `CCCCCC(CC(=O)Nc1cc(CN2C(=O)c3ccccc3C2=O)ccc1C(C)(C)C)c1cccc2c1OCCO2` (stereo not drawn) [Example 142, N-[2-t-Butyl-5-(phthalimidomethyl)phenyl]-3-(2,3-ethylenedioxyphenyl)octanamide], 35.2 nM. The same measure for `CCCCCC(CC(=O)Nc1cc(C(=O)Nc2ccccn2)ccc1C(C)(C)C)c1c(OC)cccc1OC` (stereo not drawn) [Example 165, N-{2-t-Butyl-5-[N-(2-pyridyl)carbamoyl]phenyl}-3-(2,6-dimethoxyphenyl)octanamide]: 1.37 nM; for `CCCCCC(CC(=O)Nc1cc(CC(N)=O)ccc1C(C)(C)C)c1ccc(OC)cc1OC` (stereo not drawn) [Example 4, N-[2-t-Butyl-5-(carbamoylmethyl)phenyl]-3-(2,4-dimethoxyphenyl)octanamide]: 5.97 nM. As for `CCCCCC(CC(=O)Nc1cc(CCC(=O)NC)ccc1C(C)(C)C)c1cc(OC)c(OC)cc1OC` (stereo not drawn) [Example 186, N-[2-t-Butyl-5-(3-methylamino-3-oxopropyl)phenyl]-3-(2,4,5-trimethoxyphenyl)octanamide], the IC50 was 79.7 nM.
